Numbering of substitutions follows the chain as printed.
Tests used:
[1] = biological target: T1, human long-chain acyl-CoA dehydrogenase (LCAD) (Homo sapiens, UniProt P28330); assay: ferricenium reduction assay, spectrophotometric; format: biochemical; settings: ferricenium as terminal electron acceptor
T1 construct: gene ACADL; 400-residue mature protein without 30-residue mitochondrial transport peptide; pET11a-LCAD in E. coli BL21(DE3); no tag mentioned; 43 kDa subunit, homotetramer; numbering of the 430-residue preprotein
T1 sequence (P28330 31-430): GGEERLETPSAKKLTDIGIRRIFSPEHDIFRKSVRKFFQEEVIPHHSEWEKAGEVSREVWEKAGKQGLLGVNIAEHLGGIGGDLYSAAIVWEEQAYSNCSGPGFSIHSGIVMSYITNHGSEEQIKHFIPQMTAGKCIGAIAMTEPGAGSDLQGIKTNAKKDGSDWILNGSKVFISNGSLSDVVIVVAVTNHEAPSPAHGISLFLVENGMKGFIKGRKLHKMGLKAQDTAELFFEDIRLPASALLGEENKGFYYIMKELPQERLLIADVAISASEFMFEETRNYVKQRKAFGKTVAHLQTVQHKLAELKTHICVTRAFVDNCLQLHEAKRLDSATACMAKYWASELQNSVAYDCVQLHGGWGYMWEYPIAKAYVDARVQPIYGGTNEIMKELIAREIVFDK

[2] = biological target: T1, human long-chain acyl-CoA dehydrogenase (LCAD); assay: X-ray crystallography, […] Å; format: binding; settings: noncovalent, one FAD per subunit, at dimer interface; no substrate ligand; pH 8.2-8.5
[3] = biological target: T2, human long-chain acyl-CoA dehydrogenase (LCAD) (Homo sapiens, UniProt P28330, E291Q); assay: X-ray crystallography, […] Å, co-crystallized with C12-CoA; format: binding; settings: noncovalent, one FAD per subunit; pH 8.2-8.5
T2 construct: gene ACADL; 400-residue mature protein without 30-residue mitochondrial transport peptide; pET11a-LCAD in E. coli BL21(DE3); no tag mentioned; 43 kDa subunit, homotetramer; numbering of the 430-residue preprotein
T2 sequence (P28330 31-430 E291Q): T1 sequence (P28330 31-430) with E261Q

[4] = biological target: T1, human long-chain acyl-CoA dehydrogenase (LCAD); assay: X-ray crystallography, […] Å, soaked crystal; format: binding; settings: active site; inhibitor; bound in monomers A and B only; 0.1% beta-octyl glucoside, pH 8.2-8.5

With CCCCCCCCCCCC(=O)SCCNC(=O)CCNC(=O)[C@H](O)C(C)(C)COP(=O)(O)OP(=O)(O)OC[C@H]1O[C@@H](n2cnc3c(N)ncnc32)[C@H](O)[C@@H]1OP(=O)(O)O [C12-CoA] the “ferricenium reduction assay, spectrophotometric” value [1] was “The reaction was initiated by addition of C12-CoA substrate”.

With Cc1cc2nc3c(=O)[nH]c(=O)nc-3n(C[C@H](O)[C@H](O)[C@H](O)COP(=O)(O)OP(=O)(O)OC[C@H]3O[C@@H](n4cnc5c(N)ncnc54)[C@H](O)[C@@H]3O)c2cc1C [FAD] the “X-ray crystallography, 2.5 Å” value [2] was “The strong electron density map in the FAD position indicated the correctness of the solution” and the “X-ray crystallography, 2.0 Å, co-crystallized with C12-CoA” value [3] was “FAD, Gly412, and the catalytic residue (E291Q) are shown as sticks”.

For CC(=O)CC(=O)SCCNC(=O)CCNC(=O)[C@H](O)C(C)(C)COP(=O)(O)OP(=O)(O)OC[C@H]1O[C@@H](n2cnc3c(N)ncnc32)[C@H](O)[C@@H]1OP(=O)(O)O [acetoacetyl-CoA], the “X-ray crystallography, 2.8 Å, soaked crystal” value [4] was “the inhibitor acetoacetyl-CoA can be soaked into the crystals”.

— paper PMC11153573, “Structural basis for expanded substrate specificities of human long chain acyl-CoA dehydrogenase and related acyl-CoA dehydrogenases” (Scientific Reports, 2024)
